Data: patent US20260159536A1, “AKR1C3-ACTIVATED DNA ALKYLATING AGENT, AND MEDICAL APPLICATION THEREOF” (ASCENTAWITS PHARMACEUTICALS, LTD., priority 2021, published 2026)

Tests used:
[1] = system: HuPrime model LI6664 human liver cancer; assay: In vivo pharmacodynamics, liver cancer LI6664 PDX model; set-up: species or system BALB/c nude mice; details: for Relative tumor volume (x ± S) / Tumor volume (x ± S): mean ± standard error; for Tumor volume (x ± S): in mm³ (unit assumed)
[2] = Liver microsome stability, human; type: in vitro ADME; details: Human liver microsomes; with the addition of NADPH
Protocol: (§1) 1) Two individual experiments were performed.
(§2) All experiments were performed in duplicate.

[3] = Liver microsome stability, monkey; type: in vitro ADME; details: Monkey liver microsomes; with the addition of NADPH
Protocol: as §1, §2

C[C@@H](OP(=O)(N1CC1)N1CC1)c1ccc([N+](=O)[O-])c(Oc2cccc(C(=O)N(C)C)c2)c1 [AST-3424]
T/C (%) ([1]; AST-3424 1 mg/kg, Day 28): 34.95%
Relative tumor volume (x ± S) ([1]; AST-3424 1 mg/kg, Day 28): 4.51 ± 1.21
Tumor volume (x ± S) ([1]; AST-3424 1 mg/kg, Day 28): 463.09 ± 99.32
T/C (%) ([1]; AST-3424 1.25 mg/kg, Day 28): 47.58%
Relative tumor volume (x ± S) ([1]; AST-3424 1.25 mg/kg, Day 28): 6.14 ± 0.94
Tumor volume (x ± S) ([1]; AST-3424 1.25 mg/kg, Day 28): 687.95 ± 147.16
Size of tumor volume ([1]; Group3, AST-3424 0.3 mg/kg, Day 0): 108.20 mm^3
Size of tumor volume ([1]; Group3, AST-3424 0.3 mg/kg, Day 4): 162.32 mm^3
Size of tumor volume ([1]; Group3, AST-3424 0.3 mg/kg, Day 7): 177.51 mm^3
Size of tumor volume ([1]; Group3, AST-3424 0.3 mg/kg, Day 11): 208.59 mm^3
Size of tumor volume ([1]; Group3, AST-3424 0.3 mg/kg, Day 14): 306.95 mm^3
Size of tumor volume ([1]; Group3, AST-3424 0.3 mg/kg, Day 18): 391.40 mm^3
Size of tumor volume ([1]; Group3, AST-3424 0.3 mg/kg, Day 21): 499.34 mm^3
Size of tumor volume ([1]; Group3, AST-3424 0.3 mg/kg, Day 25): 631.08 mm^3
Size of tumor volume ([1]; Group3, AST-3424 0.3 mg/kg, Day 28): 746.71 mm^3
Size of tumor volume ([1]; Group3, AST-3424 0.3 mg/kg, Day 32): 958.09 mm^3
Size of tumor volume ([1]; Group3, AST-3424 0.3 mg/kg, Day 35): 1059.71 mm^3
Size of tumor volume ([1]; Group3, AST-3424 0.3 mg/kg, Day 39): 1226.51 mm^3
Size of tumor volume ([1]; Group3, AST-3424 0.3 mg/kg, Day 42): 1094.69 mm^3
Size of tumor volume ([1]; Group3, AST-3424 0.3 mg/kg, Day 46): 1268.82 mm^3
Size of tumor volume ([1]; Group3, AST-3424 0.3 mg/kg, Day 49): 1486.77 mm^3
Size of tumor volume ([1]; Group4, AST-3424 1 mg/kg, Day 0): 107.53 mm^3
Size of tumor volume ([1]; Group4, AST-3424 1 mg/kg, Day 4): 131.59 mm^3
Size of tumor volume ([1]; Group4, AST-3424 1 mg/kg, Day 7): 145.23 mm^3
Size of tumor volume ([1]; Group4, AST-3424 1 mg/kg, Day 11): 158.03 mm^3
Size of tumor volume ([1]; Group4, AST-3424 1 mg/kg, Day 14): 233.54 mm^3
Size of tumor volume ([1]; Group4, AST-3424 1 mg/kg, Day 18): 291.97 mm^3
Size of tumor volume ([1]; Group4, AST-3424 1 mg/kg, Day 21): 371.35 mm^3
Size of tumor volume ([1]; Group4, AST-3424 1 mg/kg, Day 25): 438.00 mm^3
Size of tumor volume ([1]; Group4, AST-3424 1 mg/kg, Day 28): 463.09 mm^3
Size of tumor volume ([1]; Group4, AST-3424 1 mg/kg, Day 32): 622.48 mm^3
Size of tumor volume ([1]; Group4, AST-3424 1 mg/kg, Day 35): 748.13 mm^3
Size of tumor volume ([1]; Group4, AST-3424 1 mg/kg, Day 39): 929.60 mm^3
Size of tumor volume ([1]; Group4, AST-3424 1 mg/kg, Day 42): 1226.79 mm^3
Size of tumor volume ([1]; Group4, AST-3424 1 mg/kg, Day 46): 1496.83 mm^3
Size of tumor volume ([1]; Group4, AST-3424 1 mg/kg, Day 49): 1717.60 mm^3
Size of tumor volume ([1]; Group5, AST-3424 1.25 mg/kg, Day 0): 108.46 mm^3
Size of tumor volume ([1]; Group5, AST-3424 1.25 mg/kg, Day 4): 174.65 mm^3
Size of tumor volume ([1]; Group5, AST-3424 1.25 mg/kg, Day 7): 210.25 mm^3
Size of tumor volume ([1]; Group5, AST-3424 1.25 mg/kg, Day 11): 222.97 mm^3
Size of tumor volume ([1]; Group5, AST-3424 1.25 mg/kg, Day 14): 291.02 mm^3
Size of tumor volume ([1]; Group5, AST-3424 1.25 mg/kg, Day 18): 361.03 mm^3
Size of tumor volume ([1]; Group5, AST-3424 1.25 mg/kg, Day 21): 467.94 mm^3
Size of tumor volume ([1]; Group5, AST-3424 1.25 mg/kg, Day 25): 581.63 mm^3
Size of tumor volume ([1]; Group5, AST-3424 1.25 mg/kg, Day 28): 687.95 mm^3
Size of tumor volume ([1]; Group5, AST-3424 1.25 mg/kg, Day 32): 746.71 mm^3
Size of tumor volume ([1]; Group5, AST-3424 1.25 mg/kg, Day 35): 871.84 mm^3
Size of tumor volume ([1]; Group5, AST-3424 1.25 mg/kg, Day 39): 1081.64 mm^3
Size of tumor volume ([1]; Group5, AST-3424 1.25 mg/kg, Day 42): 1307.36 mm^3
Size of tumor volume ([1]; Group5, AST-3424 1.25 mg/kg, Day 46): 1675.14 mm^3
Size of tumor volume ([1]; Group5, AST-3424 1.25 mg/kg, Day 49): 1923.31 mm^3
weight loss ([1]; mouse, in vivo): no weight loss
Percentage remaining after 30 minutes [2]: 10.65%
Percentage remaining after 30 minutes [3]: 0.03%
